Where “and” joins values, the source holds several entries; their conditions need not be identical. Equal values may be shown once. Read-outs that look alike come from different tables or passages of the source. Blank lines part the entries; values can stand above or below the compound they belong to.
Assays:
[1] = cited from earlier work
clinical = conditions: human, plasma, oral, 300 mg, 300 mg twice daily; for AUC: ABC AUC; for Cmax: ABC Cmax; for Vd/F: ABC Vd/F (volume of distribution); for half-life: ABC half-life
[2] = 300 mg twice daily
[3] = molecular target: HIV-1 reverse transcriptase; conditions: cited from earlier work
[4] = cited from earlier work; remark: listed apart in the source
[5] = Intracellular triphosphate; format: in vivo, human; conditions: median ratio, 4 h after dose vs predose; all subjects

AUC (clinical; mean (SD), <18 years (n = 15)): 7350 ng·h/mL
AUC (clinical; mean (SD), Total (n = 30)): 7480 ng·h/mL
AUC (clinical; mean (SD), ≥18 years (n = 15)): 7610 ng·h/mL
AUC (clinical; median, <18 years (n = 15)): 7010 ng·h/mL
AUC (clinical; median, Total (n = 30)): 6720 ng·h/mL
AUC (clinical; median, ≥18 years (n = 15)): 6590 ng·h/mL
Cmax (clinical; mean (SD), <18 years (n = 15)): 2790 ng/mL
Cmax (clinical; mean (SD), Total (n = 30)): 2860 ng/mL
Cmax (clinical; mean (SD), ≥18 years (n = 15)): 2940 ng/mL
Cmax (clinical; median, <18 years (n = 15)): 2580 ng/mL
Cmax (clinical; median, Total (n = 30)): 2620 ng/mL
Cmax (clinical; median, ≥18 years (n = 15)): 2740 ng/mL
Vd/F (clinical; mean (SD), <18 years (n = 15)): 82.9 L and 1.35 L/kg
Vd/F (clinical; mean (SD), Total (n = 30)): 77.8 L and 1.19 L/kg
Vd/F (clinical; mean (SD), ≥18 years (n = 15)): 72.8 L and 1.04 L/kg
Vd/F (clinical; median, <18 years (n = 15)): 67.1 L and 0.9 L/kg
Vd/F (clinical; median, Total (n = 30)): 71.5 L and 1.05 L/kg
Vd/F (clinical; median, ≥18 years (n = 15)): 73.5 L and 1.1 L/kg
half-life (clinical; mean (SD), <18 years (n = 15)): 1.23 h
half-life (clinical; mean (SD), Total (n = 30)): 1.19 h
half-life (clinical; mean (SD), ≥18 years (n = 15)): 1.14 h
half-life (clinical; median, <18 years (n = 15)): 1.22 h
half-life (clinical; median, Total (n = 30)): 1.23 h
half-life (clinical; median, ≥18 years (n = 15)): 1.34 h
ABC CL/F (apparent oral clearance) ([2]; mean (SD), <18 years (n = 15)): 47.47 (19.52) l/h
ABC CL/F adjusted for body surface area ([2]; mean (SD), <18 years (n = 15)): 481.60 (192.62) ml/min/m^2
ABC CL/F adjusted for weight ([2]; mean (SD), <18 years (n = 15)): 13.03 (5.31) ml/min/kg
ABC CL/F (apparent oral clearance) ([2]; mean (SD), Total (n = 30)): 45.44 (16.87) l/h
ABC CL/F adjusted for body surface area ([2]; mean (SD), Total (n = 30)): 437.77 (168.51) ml/min/m^2
ABC CL/F adjusted for weight ([2]; mean (SD), Total (n = 30)): 11.73 (4.84) ml/min/kg
ABC CL/F (apparent oral clearance) ([2]; mean (SD), ≥18 years (n = 15)): 43.40 (14.13) l/h
ABC CL/F adjusted for body surface area ([2]; mean (SD), ≥18 years (n = 15)): 393.93 (132.66) ml/min/m^2
ABC CL/F (apparent oral clearance) ([2]; median, <18 years (n = 15)): 42.80 L/h
ABC CL/F adjusted for body surface area ([2]; median, <18 years (n = 15)): 382.00 ml/min/m^2
ABC CL/F (apparent oral clearance) ([2]; median, Total (n = 30)): 44.70 L/h
ABC CL/F adjusted for body surface area ([2]; median, Total (n = 30)): 390.50 ml/min/m^2
ABC CL/F (apparent oral clearance) ([2]; median, ≥18 years (n = 15)): 45.50 L/h
ABC CL/F adjusted for body surface area ([2]; median, ≥18 years (n = 15)): 399.00 ml/min/m^2
SMILES: Nc1nc(NC2CC2)c2ncn([C@H]3C=C[C@@H](CO)C3)c2n1 [ABC, abacavir]
observed clearance seen in adults (reference value for hypothesis test on AUC) ([1]; adults, reference not printed at the place): 6000 ng·h/mL
abacavir steady-state AUC ([1]; older adults, 300 mg twice daily (~4 mg/kg)): 5000 to 6000 ng·h/mL
abacavir weight-adjusted apparent oral clearance ([1]; translated from 0.86 l/min for a 70-kg adult, ref 12 (McDowell et al.)): 12.3 mL/min/kg

SMILES: Nc1nc(=O)c2ncn([C@H]3C=C[C@@H](COP(=O)(O)OP(=O)(O)OP(=O)(O)O)C3)c2[nH]1 [Carbovir-TP, carbovir-triphosphate]
carbovir-TP reverse transcriptase Ki expressed as intracellular amount ([3]; equivalent of 21 nmol/l): ~ 10 fmol/10^6 cells
Ki ([3]; read-out: carbovir-TP reverse transcriptase Ki, ex vitro): 21 nM
intracellular carbovir-TP concentrations ([4]; range reported from previous studies): 4-290 fmol/10^6 cells
C4/C0 ratio of intracellular TP concentrations [5]: 1.89 and 1.9

C4/C0 ratio of intracellular TP concentrations [5]: 1.31 and 1.3
SMILES: Nc1ccn([C@@H]2CS[C@H](COP(=O)(O)OP(=O)(O)OP(=O)(O)O)O2)c(=O)n1 [Lamivudine-TP, lamivudine triphosphate]
intracellular lamivudine-TP average concentrations ([4]; range of averages in previous studies): 1.7-8.6 pmol/10^6 cells

C4/C0 ratio of intracellular TP concentrations [5]: 1.95
SMILES: Cc1cn([C@H]2C[C@H](N=[N+]=[N-])[C@@H](CO[P@](=O)(O)O[P@](=O)(O)OP(=O)(O)O)O2)c(=O)[nH]c1=O [Zidovudine-TP, zidovudine triphosphate]
intracellular zidovudine-TP concentrations ([4]; range seen in previous studies): 6.3-58 fmol/10^6 cells
